Assay results published in publication PMC3708846, “Cathelicidin-like Helminth Defence Molecules (HDMs): Absence of Cytotoxic, Anti-microbial and Anti-protozoan Activities Imply a Specific Adaptation to Immune Modulation” (PLoS Neglected Tropical Diseases, 2013).
In brackets after ≈: the same amount, converted by molar mass. Several values for one entry are separate records, joined by “and”; a condition that tells them apart may be missing. Equal entries are not always repeated. Where two headings read alike, the source gives them in different places. Each block holds one molecule with its values, some of them ahead of it. Ends that are not written are not given here.

Assays:
[1] = test system: Pseudomonas aeruginosa; format: cell-based
Protocol: (§1) The minimal inhibitory concentration (MIC) of each peptide against various bacteria was determined using a standardized dilution method according to NCSLA guidelines [35]. Overnight colonies of E. coli, Pseudomonas aeruginosa, Salmonella typhimurium, Staphylococcus epidermis and Staphylococcus aureus, were suspended to a turbidity of 0.5 OD units and further diluted in Mueller-Hinton broth (MHB). […] Ten microliters of each concentration was added to each corresponding well of a 96-well polypropylene microtiter plate and 1×10^5 bacteria in the volume of 90 µL. The plate was incubated at 37°C for 16 h and then read at 600 nm with a Synergy H1 hybrid reader (Biotek).

[2] = test system: human red blood cells; assay: Haemolytic activity; format: cell-based; conditions: 0.5% human RBC, 1 h 37°C, OD 414 nm, 100% = 1% Triton X-100, triplicate
Protocol: The peptide's haemolytic activities were determined using human red blood cells (RBCs; Research Blood Components, LLC) in 96-well polypropylene microtiter plates. One hundred µl of 0.5% RBC suspension was added to an equal volume of a peptide (8–256 µg/ml). After 1 h at 37°C, plates were centrifuged at 1420×g for 5 min and the optical density of the supernatant was measured at 414 nm with a Synergy H1 hybrid reader (Biotek). Values for 0% and 100% lysis were obtained by adding PBS or Triton X-100 (1%; final concentration) to RBCs, respectively. All assays were performed in triplicate and the values of percent lysis were within a 1% standard deviation range.

[3] = test system: Staphylococcus aureus; format: cell-based
Protocol: as §1

[4] = test system: Escherichia coli; format: cell-based
Protocol: as §1

[5] = test system: Staphylococcus epidermis; format: cell-based
Protocol: as §1

[6] = test system: Salmonella typhimurium; format: cell-based
Protocol: as §1

[7] = Pseudomonas aeruginosa, Mueller Hinton broth, acetic acid/BSA, 1×10^5 bacteria, 37°C 16 h, read at 600 nm
[8] = Staphylococcus aureus, Mueller Hinton broth, acetic acid/BSA, 1×10^5 bacteria, 37°C 16 h, read at 600 nm
[9] = Escherichia coli, Mueller Hinton broth, acetic acid/BSA, 1×10^5 bacteria, 37°C 16 h, read at 600 nm
[10] = Staphylococcus epidermis, Mueller Hinton broth, acetic acid/BSA, 1×10^5 bacteria, 37°C 16 h, read at 600 nm
[11] = Salmonella typhimurium, Mueller Hinton broth, acetic acid/BSA, 1×10^5 bacteria, 37°C 16 h, read at 600 nm

Molecule: CC[C@H](C)[C@H](NC(=O)[C@H](CCCCN)NC(=O)[C@H](CCC(=O)O)NC(=O)[C@H](CCCCN)NC(=O)[C@H](CO)NC(=O)[C@H](CCCCN)NC(=O)[C@H](CCCNC(=N)N)NC(=O)[C@H](Cc1ccccc1)NC(=O)[C@H](Cc1ccccc1)NC(=O)[C@H](CC(=O)O)NC(=O)CNC(=O)[C@H](CC(C)C)NC(=O)[C@@H](N)CC(C)C)C(=O)NCC(=O)N[C@@H](CCCCN)C(=O)N[C@@H](CCC(=O)O)C(=O)N[C@@H](Cc1ccccc1)C(=O)N[C@@H](CCCCN)C(=O)N[C@@H](CCCNC(=N)N)C(=O)N[C@H](C(=O)N[C@H](C(=O)N[C@@H](CCC(N)=O)C(=O)N[C@@H](CCCNC(=N)N)C(=O)N[C@H](C(=O)N[C@@H](CCCCN)C(=O)N[C@@H](CC(=O)O)C(=O)N[C@@H](Cc1ccccc1)C(=O)N[C@@H](CC(C)C)C(=O)N[C@@H](CCCNC(=N)N)C(=O)N[C@@H](CC(N)=O)C(=O)N[C@@H](CC(C)C)C(=O)N[C@H](C(=O)N1CCC[C@H]1C(=O)N[C@@H](CCCNC(=N)N)C(=O)N[C@H](C(=O)N[C@@H](CCC(=O)O)C(=O)N[C@@H](CO)C(=O)O)[C@@H](C)O)C(C)C)[C@@H](C)CC)C(C)C)[C@@H](C)CC [LL-37, reference compound]
MIC [1, 7]: 8 µg/mL (≈ 1.78 µM) | Hemolytic activity ([2]; peptide 16 µg/ml): 1.7% | Hemolytic activity ([2]; peptide 32 µg/ml): 4.1% | Hemolytic activity ([2]; peptide 64 µg/ml): 10.4% | Hemolytic activity ([2]; peptide 128 µg/ml): 20% | Hemolytic activity ([2]; peptide 256 µg/ml): 20% | MIC [3, 8]: >128 µg/mL | MIC [4, 9]: 4 µg/mL (≈ 0.89 µM) | MIC [5, 10]: >128 µg/mL | MIC [6, 11]: 2 µg/mL (≈ 0.445 µM)

Molecule: GGLRSLGRKILRAWKKYGPIIVPIIRIG [BMAP-28]
MIC ([1]; 16 h): 4 µg/mL | MIC ([3]; 16 h): 8 µg/mL | MIC ([4]; 16 h): 1 µg/mL | MIC ([5]; 16 h): 4 µg/mL | MIC ([6]; murium, 16 h): 4 µg/mL | Hemolytic activity: 50% and 70%

Molecule: MDKYIRKEDLGMKMLDVAKILGRRIEKRMEYIAKK [Sm16-p73]
MIC [1, 7]: >128 µg/mL | Hemolytic activity ([2]; peptide 8 µg/ml): 0% | Hemolytic activity ([2]; peptide 16 µg/ml): 0% | Hemolytic activity ([2]; peptide 32 µg/ml): 0% | Hemolytic activity ([2]; peptide 64 µg/ml): 0% | Hemolytic activity ([2]; peptide 128 µg/ml): 0% | Hemolytic activity ([2]; peptide 256 µg/ml): 0% | MIC [3, 8]: >128 µg/mL | MIC [4, 9]: >128 µg/mL | MIC [5, 10]: >128 µg/mL | MIC [6, 11]: >128 µg/mL

Molecule: AMAYLAKDNLGEKITEVITILLNRLTDRLEKYAG [FhHDM-1p2]
MIC [1, 7]: >128 µg/mL | Hemolytic activity ([2]; peptide 8 µg/ml): 0% | Hemolytic activity ([2]; peptide 16 µg/ml): 0% | Hemolytic activity ([2]; peptide 32 µg/ml): 1.8% | Hemolytic activity ([2]; peptide 64 µg/ml): 2.6% | Hemolytic activity ([2]; peptide 128 µg/ml): 5.4% | Hemolytic activity ([2]; peptide 256 µg/ml): 11.4% | MIC [3, 8]: >128 µg/mL | MIC [4, 9]: >128 µg/mL | MIC [5, 10]: >128 µg/mL | MIC [6, 11]: >128 µg/mL

MIC ([1]; 16 h): 4 µg/mL | MIC ([3]; 16 h): >128 µg/mL | MIC ([4]; 16 h): 2 µg/mL | MIC ([5]; 16 h): >128 µg/mL | MIC ([6]; murium, 16 h): 4 µg/mL
Molecule: ISRLAGLLRKGGEKIGEKLKKIGQKIKNFFQKLVPQPE [CRAMP]
